Results taken from patent US11352352B2, “Aminopyrimidine compound, preparation method therefor and use thereof” (BEIJING ADAMADLE BIOTECHNOLOGY LIMITED LIABILITY COMPANY, priority 2017, dated 2022).

Key:
Assay in all cases: Cell proliferation inhibition experiment, CellTiter-Glo (CTG) method
Format in all cases: cell-based
[1] = tested on: NCI-H1975; conditions: for IC50: Homo sapiens, NCI-H1975, 72 h, NCI-H1975 cells, CTG, 3 days; for A-431/NCI-H1975 Selectivity: ratio of A-431 IC50 to NCI-H1975 IC50
In short: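 NCI-H1975 cells with viability above 90% by trypan blue were seeded at 90 μL per well in black 96-well plates and incubated overnight at 37° C., 5% CO2. Compounds were added at nine concentrations in triplicate, and viability was measured with CellTiter-Glo luminescence on EnVision. IC50 came from non-linear S-curve fitting in GraphPad Prism 5.0.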

[2] = tested on: PC-9; conditions: Homo sapiens, PC-9, 72 h, PC-9 cells, 3 days
In short: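 Cells in log-phase growth (viability above 90% by trypan blue) were seeded at 90 μL per well in black-walled, clear-bottom 96-well plates and incubated overnight at 37° C., 5% CO2. A T0 plate was read the next day. Test compounds were added at nine concentrations in triplicate with a solvent control. Viability was measured by CellTiter-Glo luminescence on EnVision, and IC50 came from non-linear S-curve fitting in GraphPad Prism 5.0.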

[3] = tested on: A-431; conditions: Homo sapiens, A-431, 72 h, A-431 cells, 3 days
In short: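 For each line, compound is added at nine threefold-spaced concentrations, highest 30 μM (A-431) or 1.111 μM (NCI-H1975, PC-9), and cells grow 3 days at 37 °C. CellTiter-Glo luminescence gives survival relative to solvent control, fitted to yield IC50.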

Structure (SMILES) | IC50 [1] [µM] | A-431/NCI-H1975 Selectivity [1] | IC50 [2] [µM] | IC50 [3] [µM]
C=CC(=O)Nc1cc(Nc2cc(-c3ccc4cnn(C)c4c3)ncn2)c(OC)cc1N(C)C1CCN(CC)CC1 [compound 227] | 0.0796 | 30.6 | 0.0907 | 2.44
C=CC(=O)Nc1cc(Nc2cc(-c3ccc4cnn(C)c4c3)ncn2)c(OC)cc1N(C)CCN(CC)CC [compound 80] | 0.043 | 13.6 | 0.0359 | 0.586
C=CC(=O)Nc1cc(Nc2cc(-c3ccc4c(cnn4C)c3)ncn2)c(OC)cc1N(C)C1CCN(CC)CC1 [compound 226] | 0.0682 | 35.0 | 0.0546 | 2.39
C=CC(=O)Nc1cc(Nc2cc(-c3cc4cnn(C)c4cc3F)ncn2)c(OC)cc1N(C)CCN(C)C [compound 5] | 0.0056 | – | 0.0039 | 0.302
C=CC(=O)Nc1c(N(C)CCN(C)C(C)C)cc(OC)c(Nc2cc(-c3ccc4cnn(C)c4c3)ncn2)c1F [compound 198] | 0.0771 | 30.4 | 0.0658 | 2.34
C=CC(=O)Nc1cc(Nc2cc(-c3ccc4nc(C)sc4c3)ncn2)c(OC)cc1N1CCN(CCN(C)C)CC1 [compound 190] | 0.108 | 19.3 | 0.0247 | 2.08
C=CC(=O)Nc1cc(Nc2cc(-c3ccc4c(cnn4C)c3)ncn2)c(OC)cc1N(C)CCN1CCCCC1 [compound 37] | 0.0675 | 25.5 | 0.0798 | 1.72
C=CC(=O)Nc1cc(Nc2cc(-c3ccc4c(cnn4C)c3)ncn2)c(OC)cc1N1CCN(CC(F)(F)F)CC1 [compound 32] | 0.186 | 50.1 | 0.0109 | 9.33
C=CC(=O)Nc1cc(Nc2cc(-c3ccc4c(cnn4C)c3)ncn2)c(OC)cc1N1CCCN(C)CC1 [compound 39] | 0.0245 | 39.6 | 0.0257 | 0.973
C=CC(=O)Nc1cc(Nc2cc(-c3ccc4c(cnn4C)c3)ncn2)c(OC(F)F)cc1N1CCC(N2CCCC2)CC1 [compound 150] | 0.0053 | 102.5 | 0.0193 | 0.543
C=CC(=O)Nc1cc(Nc2cc(-c3cc(C(F)(F)F)c4c(cnn4C)c3)ncn2)c(OC)cc1N(C)CCN(C)C [compound 4] | 0.0151 | 34.0 | 0.0101 | 0.514
C=CC(=O)Nc1cc(Nc2nccc(-c3ccc4c(cnn4C)c3)n2)c(OC)cc1N1CCC(N(CC)CC)CC1 [compound 262] | 0.123 | 24.1 | 0.0527 | 2.98
C=CC(=O)Nc1cc(Nc2nccc(-c3ccc4cnn(C(C)C)c4c3)n2)c(OC)cc1N(C)CCN(C)C [compound 17] | 0.0222 | 56.2 | 0.0169 | 1.25
C=CC(=O)Nc1cc(Nc2cc(-c3ccc4c(cnn4C)c3)ncn2)c(OC(F)F)cc1N1CCN(C2CCOCC2)CC1 [compound 153] | 0.025 | 53.0 | 0.0351 | 1.32
C=CC(=O)Nc1cc(Nc2cc(-c3ccc4c(cnn4CC)c3)ncn2)c(OC(F)F)cc1N(C)CCN(CC)CC [compound 96] | 0.0137 | 69 | 0.0108 | 0.945
C=CC(=O)Nc1cc(Nc2cc(-c3ccc4c(cnn4C)c3)ncn2)c(OCC)cc1N(C)CCN(C)CC [compound 140] | 0.0117 | 84.4 | 0.0138 | 0.987

Structure (SMILES) | IC50 [1] [µM] | A-431/NCI-H1975 Selectivity [1] | IC50 [2] [µM] | IC50 [3] [µM]
C=CC(=O)Nc1cc(Nc2cc(-c3ccc4c(cnn4C)c3)ncn2)c(OC)cc1N1CCN(C)[C@H](C)C1 [compound 31] | 0.0527 | 29.9 | 0.0456 | 1.58
C=CC(=O)Nc1cc(Nc2cc(-c3ccc4c(cnn4C)c3)ncn2)c(OC)cc1N1CCN(C2CC2)CC1 [compound 143] | 0.0516 | 19.2 | 0.0235 | 0.988
C=CC(=O)Nc1cc(Nc2cc(-c3ccc4c(cnn4CC)c3)ncn2)c(OC)cc1N(C)C1CCN(C)C1 (stereo not shown) [compound 112] | 0.009 | 72.7 | 0.0097 | 0.654
C=CC(=O)Nc1cc(Nc2cc(-c3ccc4c(cnn4C)c3)ncn2)c(OC)cc1N1CCOCC1 [compound 102] | 0.0141 | 70.0 | 0.0125 | 0.986
C=CC(=O)Nc1cc(Nc2nccc(-c3ccc4c(cnn4C)c3)n2)c(OC)cc1N(C)CCN1CCN(C)CC1 [compound 244] | 0.0597 | 40.2 | 0.0847 | 2.4
C=CC(=O)Nc1cc(Nc2cc(-c3ccc4c(cnn4C)c3)ncn2)c(OCC)cc1N1CCN(CCN(C)C)CC1 [compound 117] | 0.0113 | 60.1 | 0.0112 | 0.679
C=CC(=O)Nc1cc(Nc2cc(-c3ccc4c(cnn4C)c3)ncn2)c(OC)cc1N1CCC(N2CCC(OC)CC2)CC1 [compound 204] | 0.0157 | 56.7 | 0.0158 | 0.891
C=CC(=O)Nc1cc(Nc2cc(-c3ccc4c(cnn4C)c3)ncn2)c(OC(F)F)cc1N1C[C@@H](C)N[C@@H](C)C1 [compound 266] | 0.0101 | 92.9 | 0.0248 | 0.938
C=CC(=O)Nc1cc(Nc2cc(-c3ccc4cnn(C)c4c3)ncn2)c(OC)cc1N1CCN(C)CC1 [compound 43] | 0.0298 | 38.3 | 0.0167 | 1.14
C=CC(=O)Nc1cc(Nc2cc(-c3ccc4c(cnn4C)c3)ncn2)c(OC)cc1N(C)C1CCN(CCOC)CC1 [compound 224] | 0.0158 | 69.3 | 0.0271 | 1.09
C=CC(=O)Nc1cc(Nc2cc(-c3ccc4c(cnn4C)c3)ncn2)c(OC)cc1N(C)C1CCC(N(C)C)CC1 (stereo not shown) [compound 71] | 0.0331 | 77.3 | 0.0278 | 2.56
C=CC(=O)Nc1cc(Nc2cc(-c3ccc4c(cnn4C)c3)ncn2)c(OC)cc1N1CCC2(CC1)COC2 [compound 107] | 0.0165 | 78.2 | 0.0178 | 1.29
C=CC(=O)Nc1cc(Nc2nccc(-c3ccc4c(cnn4C)c3)n2)c(OC(F)F)cc1N(C)CCN(C)CC [compound 259] | 0.0149 | 102.6 | 0.0199 | 1.53
C=CC(=O)Nc1cc(Nc2nccc(-c3ccc4cnn(C)c4c3)n2)c(OC)cc1N(C)CCN(C)C [compound 16] | 0.057 | 27.1 | 0.0405 | 1.55
C=CC(=O)Nc1cc(Nc2cc(-c3ccc4c(cnn4C)c3)ncn2)c(OC(F)F)cc1N(C)CCN(C)C [compound 287] | 0.004 | 152.9 | 0.0092 | 0.612
C=CC(=O)Nc1cc(Nc2cc(-c3ccc4c(cnn4C)c3)ncn2)c(OCC)cc1N(C)CCN(C)C [compound 289] | 0.0122 | 85.1 | 0.0241 | 1.04
